Tests used:
[1] = Metabolic stability of liver microsomes, human; format: in vitro ADME; settings: NADPH, 0-45 min; for microsomal CLint: read-out: CLint(μL/min/mg protein) Human
Method: (§1) The liver microsomes of human, rat, mouse and dog were used to study the metabolic stability of the compounds. The specific experimental steps are as follows: • (1) Add 40 μL MgCl2 and 306 μL PBS to each well of a 96-well plate, and then add 4 μL compound, with a final DMSO concentration of ≤0.5%. Set up a blank well without compound; • (2) Add 10 μL of 20 mg/mL liver microsomes to each well, incubate at 37° C. for 10 min; • (3) Add 40 μL NADPH working solution to each well to start the reaction, and set up a control well without NADPH; • (4) At 0, 5, 15, and 45 min after the start of the reaction, 50 μL of sample was taken out, the termination solution was added, and the mixture was shaken for 5 min. • (5) The samples were then centrifuged at 3,220 g for 10 min, and 50 μL of the supernatant was removed and was added 200 μL water for dilution and analysis by LC-MS/MS.
(§2) The in vitro intrinsic clearance (in vitro CLint, in μL/min/mg) was calculated from the in vitro half-life t1/2 (minutes) using the following equation (mean of replicates):
(§3) In vitro clearance rate=0.693/in vitro half-life t1/2×[incubation volume (μL)/(protein amount (mg)]

[2] = biological target: Ba/F3 (EGFR Del19/C797S) (Homo sapiens, UniProt P00533, C797S, cells depend on it, form not given); assay: Cell proliferation inhibitory activity assay, Ba/F3 EGFR Del19/C797S; format: cell-based; settings: cell proliferation inhibition, 72 hours, luminescence; read-out: Ba/F3 cells overexpressing different EGFR mutations IC50 (nM) Del19/C797S
Method: (§4) Suspension cells Ba/F3 (EGFR. Dell9/T790M/C797S), Ba/F3 (EGFR L858R/T790M/C797S), Ba/F3 (EGFR Del19/C797S), and Ba/F3 (EGFR L858R/C797S) overexpressing different EGFR mutations were cultured in PRMI 1640 containing 10% FBS and 1% PS, and adherent cells A431 carrying EGFR WT were cultured in DMEM containing 10% FBS and 1% PS. The experimental steps for compound activity detection are as follows: • (1) Take adherent cells in the logarithmic growth phase, digest them with trypsin count them, and then inoculate them into a 96-well plate at a certain density. Incubate them overnight at 37° C. and 5% CO2 to allow them to adhere.
(§5) Y=minimum+([…])/(1+10^((Log IC50−X)*slope)); • X: logarithm of compound concentration; Y: cell survival inhibition rate.

[3] = Metabolic stability of liver microsomes, rat; format: in vitro ADME; settings: NADPH, 0-45 min; for microsomal CLint: read-out: CLint(μL/min/mg protein) Rat
Method: as §1, §2, §3

[4] = biological target: Ba/F3 (EGFR L858R/T790M/C797S) (Homo sapiens, UniProt P00533, T790M/C797S/L858R, cells depend on it); assay: Cell proliferation inhibitory activity assay, Ba/F3 EGFR L858R/T790M/C797S; format: cell-based; settings: cell proliferation inhibition, 72 hours, luminescence; read-out: Ba/F3 cells overexpressing different EGFR mutations IC50 (nM) L858R/T790M/C797S
Method: as §4, §5

[5] = biological target: Ba/F3 cells overexpressing EGFR Del19/T790M/C797S (Homo sapiens, UniProt P00533, T790M/C797S, cells depend on it, form not given); assay: Cell proliferation inhibitory activity assay, Ba/F3 EGFR Del19/T790M/C797S; format: cell-based; settings: cell proliferation inhibition, 72 hours, luminescence; read-out: Ba/F3 cells overexpressing different EGFR mutations IC50 (nM) Del19/T790M/C797S
Method: as §4, §5

[6] = biological target: Ba/F3 (EGFR L858R/C797S) (Homo sapiens, UniProt P00533, C797S/L858R, cells depend on it); assay: Cell proliferation inhibitory activity assay, Ba/F3 EGFR L858R/C797S; format: cell-based; settings: cell proliferation inhibition, 72 hours, luminescence; read-out: Ba/F3 cells overexpressing different EGFR mutations IC50 (nM) L858R/C797S
Method: as §4, §5

[7] = system: A431 cell carrying EGFR WT; assay: Cell proliferation inhibitory activity assay, A431; format: cell-based; settings: cell proliferation inhibition, 72 hours, luminescence
Method: as §4, §5

[8] = Metabolic stability of liver microsomes, mouse; format: in vitro ADME; settings: NADPH, 0-45 min; for microsomal CLint: read-out: CLint(μL/min/mg protein) Mouse
Method: as §1, §2, §3

[9] = Pharmacokinetics in rats; format: in vivo, rat; settings: male SD rats, 5 mg/kg orally by gavage, plasma
Method: Male SD rats (200-300 g) were used for rat PK studies. Compounds were prepared and prepared immediately before use. Rats were administered intravenously or orally by gavage. Blood was collected from the rats through the orbital venous plexus, and 100 μL whole blood was collected into K2-EDTA tubes at each time point.
1 mg/kg was given intravenously, and whole blood was collected at 0.083, 0,25, $0.5, 1, 2, 4, 7, 24, 48, and 72 h after administration; 5 mg/kg were given orally by gavage, and whole blood was collected at 0.25, 0.5, 1, 2, 4, 7, 24, 48, and 72 h after administration in different batches, or the rats were killed at 4 and 24 h to obtain brains. The brain tissue samples were homogenized by adding 4 times the volume of buffer, and the whole blood and brain tissue samples were stored in a −80° C. refrigerator for later use. After the above whole blood and brain tissue samples were precipitated with acetonitrile for protein, the supernatant was taken and mixed with water in a ratio of 1:2, and 10 μL was taken for LC-MS/MS detection.

[10] = Pharmacokinetics in mice; format: in vivo, mouse; settings: female BALB/c mice, 5 mg/kg orally by gavage, plasma
Method: Mouse PK studies were performed using female BALB/c mice (20-30 g). Compounds were prepared and prepared immediately before use. Mice were administered intravenously or orally by gavage. Blood was collected from the mouse orbital venous plexus, and 100 μL of whole blood was transferred to a K2-EDTA tube at each time point.
1 mg/kg was given intravenously, and whole blood was collected at 0.083, 0.25, 0.5, 1, 2, 4, 6 and 24 h after administration; 5 mg/kg were given orally by gavage, and whole blood was collected at 0.25, 0.5, 1, 2, 4, 6, 24 h after administration in different batches, or the mice were killed at 2, 4 and 6 h to obtain brains. Whole blood samples were centrifuged and plasma was separated; brain tissue samples were homogenized by adding 4 times the volume of buffer, and the plasma and brain tissue samples were stored in a −80° C. refrigerator for later use. After the above plasma and brain tissue samples were precipitated with acetonitrile for protein, the supernatant was taken and mixed with water in a 1:1 ratio, and 10 μL was taken for LC-MS/MS detection.

Compound	GI50 [2] [nM]	GI50 [4] [nM]	GI50 [5] [nM]	GI50 [6] [nM]	AUC(0-t) ([9]; rat, po) [ng·h/mL]	Cmax ([9]; rat, po, read-out: Cmax) [ng/mL]	half-life ([9]; rat, po) [h]	IC50 ([7]; Homo sapiens, A-431) [nM]	further results
5^6-(9-(3- methoxy- propyl)-3,9- diazaspiro[5.5] undecan-3-yl)- 2^6-methyl-5^1H- 11-oxa-4-aza- 5(2,1)-benzo[d] imidazola- 1(34),2(2,4)- dipyridinacyclo- undecaphan- 3-one [Example 76]	0.09	0.2	0.14	0.34	–	–	–	–	CLint(μL/min/mg protein) Human [1]: 8 μL/min/mg protein; CLint(μL/min/mg protein) Rat [3]: 15.6 μL/min/mg protein; IC50 [7]: 586 nM; CLint(μL/min/mg protein) Mouse [8]: 23 μL/min/mg protein
5^6-(9-((2R,6S)-2,6- dimethyl- tetrahydro-2H- pyran-4-yl)-3,9- diazaspiro[5.5] undecan-3-yl)- 2^6-methyl-5^1H- 11-oxa-4-aza- 5(2,1)-benzo [d]imidazola- 1(3,4),2(2,4)- dipyridinacyclo- undecaphan- 3-one [Example 91]	0.64	3.4	1.7	5.2	–	–	–	–	AUClast [9]: 1611 ng·h/mL; Cmax [9]: 42.5 ng/mL; T1/2 [9]: 26.4 h; AUClast [10]: 1495 ng·h/mL; Cmax [10]: 41.9 ng/mL; IC50 [7]: 759 nM
CO[C@@H]1CCC(N2CCC3(CCN(c4ccc5nc6n(c5c4)CCCCCOc4ccncc4-c4cc(cc(C)n4)C(=O)N6)CC3)CC2)C[C@@H]1F (stereo partly drawn) [Example 15, 5^6-(9-((3S,4R)-3-fluoro-4-methoxypiperidin-1-yl)-3-azaspiro[5.5]undecan-3-yl)-2^6-methyl-5^1H-11-oxa-4-aza-5(2,1)-benzo[d]imidazola-1(3,4),2(2,4) -dipyridinacycloundecaphan-3-one]	–	–	–	–	3390	104	–	–	–
Cc1cc2cc(n1)-c1cnccc1OCCCCCn1c(nc3ccc(N4CCC5(CC4)CCN(C4COC4)CC5)cc31)NC2=O [Example 52, 2^6-methyl-5^6-(9-(oxetan-3-yl)-3,9-diazaspiro [5.5]undecan-3-yl)-5^1H-11-oxa-4-aza-5(2,1)-benzo[d] imidazola-1(3,4),2(2,4)-dipyridinacyclo-undecaphan-3-one]	0.5	1.6	0.8	4.7	917	57.5	12.4	700	AUC(0-t) ([10]; mouse, po): 3460 ng·h/mL; half-life ([10]; mouse, po): 20.1 h; Cmax ([10]; mouse, po, read-out: Cmax): 215 ng/mL
Cc1cc2cc(n1)-c1cnccc1OCCCCCn1c(nc3cc(C)c(N4CCC5(CCN(CCF)CC5)CC4)cc31)NC2=O [Example 59, 5^6-(9-(2-fluoroethyl)-3,9-diazaspiro[5.5]undecan-3-yl)-2^6,5^5-dimethyl-5^1H-11-oxa-4-aza-5(2,1)-benzo [d]imidazola-1(3,4),2(2,4)-dipyridinacyclo-undecaphan-3-one]	0.45	3.7	2.4	5.7	–	–	–	–	microsomal CLint [1]: 4.82 µL/min/mg; microsomal CLint [3]: 23.3 µL/min/mg; microsomal CLint [8]: 8.93 µL/min/mg
COCCCN1CCC2(CC1)CCN(c1ccc3nc4n(c3c1)C[C@H](C)CCCOc1ccncc1-c1cc(cc(C)n1)C(=O)N4)CC2 [Example 77, (R)-5^6-(9-(3-methoxypropyl)-3,9-diazaspiro [5.5]undecan-3-yl)-2^6,7-dimethyl-5^1H-11-oxa-4-aza-5(2,1)-benzo [d]imidazola-1(3,4),2(2,4)-dipyridinacyclo-undecaphan-3-one]	0.23	0.36	0.36	0.18	–	–	–	426	microsomal CLint [1]: 17 µL/min/mg; microsomal CLint [3]: 6.7 µL/min/mg; microsomal CLint [8]: 25.1 µL/min/mg
Cc1cc2cc(n1)-c1cnc(F)cc1OCCC[C@@H](C)Cn1c(nc3ccc(N4CCC5(CC4)CCN(C4COC4)CC5)cc31)NC2=O [Example 81, (R)-1^6-fluoro-2^6,7-dimethyl-5^6-(9-(oxetan-3-yl)-3,9-diazaspiro [5.5]undecan-3-yl)-5^1H-11-oxa-4-aza-5(2,1)-benzo[d] imidazola-1(3,4),2(2,4)-dipyridinacyclo-undecaphan-3-one]	0.1	4.3	1.4	5.3	1840	116	18.8	1750	–
COC(C)(C)CC(C)N1CCC2(CCN(c3ccc4nc5n(c4c3)CCCCCOc3ccncc3-c3cc(cc(C)n3)C(=O)N5)CC2)CC1 (stereo not shown) [Example 90, 5^6-(9-(4-methoxy-4-methylpentan-2-yl)-3,9-diazaspiro[5.5]undecan-3-yl)-2^6-methyl-5^1H-11-oxa-4-aza-5(2,1)-benzo[d] imidazola-1(3,4),2(2,4)-dipyridinacyclo-undecaphan-3-one]	4	12	4.2	31	–	–	–	733	–
Cc1cc2cc(n1)-c1cnn(C)c1OCCC[C@@H](C)CN1/C(=N/C2=O)Nc2ccc(CN3CCN(C)CC3)cc21 [compound 1, reference compound]	–	–	–	–	96	10.5	2.94	–	AUC(0-t) ([10]; mouse, po): 361 ng·h/mL; half-life ([10]; mouse, po): 4.22 h; Cmax ([10]; mouse, po, read-out: Cmax): 32.8 ng/mL
Cc1cc2cc(n1)-c1cnn(C)c1OCCC[C@@H](C)CN1/C(=N/C2=O)Nc2ccc(CN3CCC4(CC3)COC4)cc21 [compound 2, reference compound]	–	–	–	–	132	27.3	–	–	–

Reference: patent US20250223300A1, “MACROCYCLIC COMPOUND AND PHARMACEUTICAL COMPOSITION AND USE THEREOF” (BETTA PHARMACEUTICALS CO., LTD, priority 2022, published 2025)
